Structures can show the parent of a compound that is named as a salt.
Test: pH and solubility behaviour of the anesthetic in water
Assay type: physicochemical
Text: In a preferred aspect, the pH modifier and the quantity of the pH modifier are selected to provide a pH to the composition of from 4 to 7, from 4.5 to 6.5, or more preferably from 5 to 5.3 when pramoxine serves as an anesthetic. In one aspect, the preferred pH for the gel is a pH value where the anesthetic is substantially present in its neutral state. For example, the hydrochloride salt of pramoxine has an acidic pH in water of about 4. However, at about pH 5 the pramoxine salt deprotonates to a neutral form that may provide increased transfer of the anesthetic into the vulvar tissues. Thus, a sufficient quantity of a base may be added to the gel as a pH modifier to provide the anesthetic in a substantially neutral form. However, at an upper pH value, such as about 5.2 for pramoxine, the anesthetic may precipitate out of the water phase, thus reducing the clarity of the gel. Thus, in a more preferred aspect, the pH modifier is chosen to provide a pH to the gel at which the majority of the anesthetic is present in its neutral state while remaining substantially solubilized.

SMILES | water solubility | pH at which the salt deprotonates to a neutral form | upper pH value at which the anesthetic may precipitate out of the water phase | pH in water (hydrochloride salt in water)
CCOC(=O)c1ccc(N)cc1 [benzocaine] | water insoluble |  |  | 
CCCCOc1ccc(OCCCN2CCOCC2)cc1 [hydrochloride salt of pramoxine, pramoxine hydrochloride] |  | ~5 | about 5.2 | about 4

Source: US8252308B2, “Feminine anti-itch gel” (C.B. Fleet Company Inc., priority 2005, dated 2012)
